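Growth conditions: 96-well plates. Treatment: test compound, 48 hours, 5 concentrations. Analysis: linear interpolation between bracketing concentrations; unreached endpoints set to highest concentration. TGI denotes the concentration required for complete inhibition of growth.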
How the values were obtained:
Assay in all cases: growth of human tumour cells (NCI), 48 h
HOP-92 NSCLC = system: HOP-92 NSCLC
HL-60(TB) leukemia = system: HL-60(TB) leukemia
DU-145 prostate = system: DU-145 prostate
HS 578T breast = system: HS 578T breast
RXF 393 renal = system: RXF 393 renal
LOX IMVI melanoma = system: LOX IMVI melanoma
BT-549 breast = system: BT-549 breast
TK-10 renal = system: TK-10 renal
IGROV1 ovarian = system: IGROV1 ovarian
A498 renal = system: A498 renal
SW-620 colon = system: SW-620 colon
SNB-75 CNS = system: SNB-75 CNS
HCT-116 colon = system: HCT-116 colon
HCC-2998 colon = system: HCC-2998 colon
K-562 leukemia = system: K-562 leukemia
SK-MEL-2 melanoma = system: SK-MEL-2 melanoma
MCF7 breast = system: MCF7 breast

Row | Compound | TGI (HOP-92 NSCLC) | TGI (HL-60(TB) leukemia) | TGI (DU-145 prostate) | TGI (HS 578T breast) | TGI (RXF 393 renal) | TGI (LOX IMVI melanoma) | TGI (BT-549 breast) | TGI (TK-10 renal) | TGI (IGROV1 ovarian) | TGI (A498 renal) | TGI (SW-620 colon) | TGI (SNB-75 CNS) | TGI (HCT-116 colon) | TGI (HCC-2998 colon) | TGI (K-562 leukemia) | TGI (SK-MEL-2 melanoma) | TGI (MCF7 breast)
1 | C=C(Cl)C(C)(Cl)CCC(Br)C(C)(C)Cl (stereo not drawn) | 36.5 µM | > 100 µM | 47.5 µM | 57.8 µM | 30.3 µM | 28 µM | 47.2 µM | > 100 µM | 90.9 µM | > 100 µM | 30.9 µM | 33.5 µM | 29.5 µM | 34.2 µM | > 100 µM | 37.6 µM | 30.8 µM
2 | C#C[C@]1(O)CC[C@H]2[C@@H]3CCC4=C/C(=N/OC(=O)c5cccc6c(=O)c7ccccc7[nH]c56)CC[C@@H]4[C@H]3CC[C@@]21C | > 100 µM | 39.8 µM | > 100 µM | > 100 µM | > 100 µM | > 100 µM | > 100 µM | > 100 µM | > 100 µM | > 100 µM | > 100 µM | > 100 µM | > 100 µM | > 100 µM | 59 µM | > 100 µM | > 100 µM
3 | COc1ccc2c(cnc3c4cc(OC)c(OC)cc4ccc23)c1 | > 100 µM | > 100 µM | > 100 µM | > 100 µM | > 100 µM | > 100 µM | > 100 µM | > 100 µM | > 100 µM | > 100 µM | > 100 µM |  | > 100 µM | > 100 µM | > 100 µM | > 100 µM | > 100 µM
4 | O=C1C(=Cc2ccccc2O)N=C(c2ccccc2)N1n1c(-c2ccccc2)nc2ccccc2c1=O |  | 31.9 µM | > 100 µM | > 100 µM |  | > 100 µM | 89.9 µM | > 100 µM | > 100 µM | 64.1 µM | > 100 µM | 87.8 µM | 89.8 µM | 89.2 µM | 78.2 µM |  | 64.3 µM
5 | C=C1CN2CC(=C)CN(C1)CS(=O)(=O)N1CC(=C)CN(CC(=C)C1)S(=O)(=O)N1CC(=C)CN(CC(=C)C1)S(=O)(=O)C2 | > 100 µM | > 100 µM | > 100 µM | 86.1 µM | 56.8 µM | > 100 µM | > 100 µM | 51.5 µM | > 100 µM | > 100 µM | > 100 µM |  | > 100 µM | 37.5 µM | > 100 µM | > 100 µM | > 100 µM
6 | COc1ccc2c(c1)CCN1CCc3ccccc3CC21 (stereo not drawn) | 68.3 µM | 68 µM | > 100 µM | > 100 µM |  | 58.1 µM | > 100 µM | > 100 µM | > 100 µM | > 100 µM | > 100 µM | > 100 µM | > 100 µM | 48.1 µM | > 100 µM | > 100 µM | > 100 µM
7 | O=C1/C(=C/c2ccc(Cl)cc2)CSc2ccccc21 | 90.3 µM | 64.6 µM | > 100 µM | 75.5 µM | 36.3 µM | 6.21 µM | 78.6 µM | > 100 µM | 66.4 µM | > 100 µM | > 100 µM | 72.7 µM |  |  | 92.1 µM | 41.8 µM | 9.35 µM
8 | CCCCN=C(c1ccccc1)N1CCOCC1 |  | > 100 µM | > 100 µM | > 100 µM | > 100 µM | > 100 µM | > 100 µM | > 100 µM | > 100 µM | > 100 µM | > 100 µM | 83.5 µM | > 100 µM |  | > 100 µM | > 100 µM | > 100 µM
9 | Cc1cc(NCc2ccccc2)c2ccccc2[n+]1CCCCCCCCCC[n+]1c(C)cc(NCc2ccccc2)c2ccccc21 | 2.25 µM | 1.19 µM | 10.9 µM | 11.6 µM | 12.9 µM |  | 1.98 µM | 3.17 µM | > 100 µM | 14.5 µM | 4.31 µM | 1.94 µM | 1.45 µM | 1.79 µM |  | 2.08 µM | 1.91 µM
10 | C=C([C@@]1(O)C[C@H]2[C@H](CCC2(OC)OC)[C@@H]2c3ccccc3O[C@@H]21)[Si](C)(C)C | > 100 µM | 98.6 µM | > 100 µM | > 100 µM |  | > 100 µM | > 100 µM | > 100 µM | > 100 µM | > 100 µM | > 100 µM | > 100 µM | > 100 µM | > 100 µM | > 100 µM | > 100 µM | > 100 µM
11 | N#CC1=C(N)N(c2ccccc2)C(c2ccccc2)C1(C#N)C#N (stereo not drawn) |  | 43.9 µM | 32.9 µM | > 100 µM | 33.6 µM | 30.3 µM | 37 µM | 31.8 µM | 32 µM | 33.6 µM | 37.2 µM | 42 µM | 29.4 µM | 30.2 µM | 26.5 µM | 42.9 µM | 31.7 µM

— PubChem BioAssay (NCI)
